We go through nine molecules from patent US9302999B2, “Substituted triazoles as herbicides” (E. I. DU PONT DE NEMOURS AND COMPANY, priority 2012, dated 2016).

Common to all, as to format: in vivo
Experiment [1] relates to radish, wild (wild radish, Raphanus raphanistrum). The experiment can be described thus: Test D pre-/postemergence: radish, wild. From the text: Seeds of plant species selected from bluegrass (annual bluegrass, Poa annua), blackgrass (Alopecurus myosuroides), canarygrass (Phalaris minor), chickweed (common chickweed, Stellaria media), galium (catchweed bedstraw, Galium aparine), bromegrass, downy (downy bromegrass, Bromus tectorum), field poppy (Papaver rhoeas), field violet (Viola arvensis), foxtail, green (green foxtail, Setaria viridis), deadnettle (henbit deadnettle, Lamium amplexicaule), ryegrass, Italian (Italian ryegrass, Lolium multiflorum), kochia (Kochia scoparia), lambsquarters (Chenopodium album), oilseed rape (Brassica napus), pigweed (Amaranthus retroflexus), Russian thistle (Salsola iberica), chamomile (scentless chamomile, Matricaria inodora), speedwell (bird's-eye speedwell, Veronica persica), barley, spring (spring barley, Hordeum vulgare), wheat, spring (spring wheat, Triticum aestivum), buckwheat, wild (wild buckwheat, Polygonum convolvulus), mustard, wild (wild mustard, Sinapis arvensis), oat, wild (wild oat, Avena fatua), radish, wild (wild radish, Raphanus raphanistrum), windgrass (Apera spica-venti), barley, winter (winter barley, Hordeum vulgare), and wheat, winter (winter wheat, Triticum aestivum) were planted into a silt loam soil and treated preemergence with test chemicals formulated in a non-phytotoxic solvent mixture which included a surfactant. At the same time, these same crop and weed species were planted in pots containing the planting medium comprising spaghnum peat moss, vermiculite, wetting agent and starter nutrients and treated with postemergence applications of the test chemicals formulated in the same manner. Plants ranged in height from 2 to 18 cm (1- to 4-leaf stage).
Treated plants and controls were maintained in a controlled growth environment for 14 to 21 days after which time all species were compared to controls and visually evaluated. Plant response ratings, summarized in Table D, are based on a scale of 0 to 100 where 0 is no effect and 100 is complete control. A dash (-) response means no test result.

Experiment [2] relates to panicum, fall (fall panicum Panicum dichotomiflorum). The experiment can be described thus: Test F pre-/postemergence: panicum, fall. The text has this:
(§1) Seeds of plant species selected from corn (Zea mays), soybean (Glycine max), velvetleaf (Abutilon theophrasti), lambsquarters (Chenopodium album), poinsettia, wild (wild poinsettia, Euphorbia heterophylla), pigweed, palmer (palmer pigweed, Amaranthus palmeri), waterhemp (common waterhemp, Amaranthus rudis), surinam grass (Brachiaria decumbens), crabgrass, Brazil (Brazilian crabgrass, Digitaria horizontalis), panicum, fall (fall panicum Panicum dichotomiflorum), crabgrass, large (large crabgrass, Digitaria sanguinalis), foxtail, giant (giant foxtail, Setaria faberii), foxtail, green (green foxtail Setaria viridis), goosegrass (Eleusine indica), ragweed (common ragweed, Ambrosia elatior), barnyardgrass (Echinochloa crus-galli), sandbur (southern sandbur, Cenchrus echinatus), arrowleaf sida (Sida rhombifolia), ryegrass, Italian (Italian ryegrass, Lolium multiflorum), dayflower, VA (Virginia (VA) dayflower, Commelina virginica), field bindweed (Convolvulus arvensis), cocklebur (common cocklebur, Xanthium strumarium), morningglory (Ipomoea coccinea), nightshade (eastern black nightshade, Solanum ptycanthum), kochia (Kochia scoparia), nutsedge, yellow (yellow nutsedge, Cyperus esculentus), johnsongrass (Sorghum halepense), smartweed (ladysthumb smartweed, Polygonum persicaria), and beggarticks (hairy beggarticks, Bidens pilosa), were planted into a silt loam soil and treated preemergence with test chemicals formulated in a non-phytotoxic solvent mixture which included a surfactant. At the same time, plants selected from these crop and weed species and also pigweed (Amaranthus retroflexus), waterhemp_RES1 (ALS/Triazine resistant common waterhemp, Amaranthus rudis) and waterhemp_RES2 (ALS/HPPD resistant common waterhemp, Amaranthus rudis) were planted in pots containing a planting medium comprising spaghnum peat moss, vermiculite, wetting agent and starter nutrients treated with postemergence applications of some of the test chemicals formulated in the same manner. Plants ranged in height from 2 to 18 cm for postemergence treatments (1- to 4-leaf stage).
(§2) Treated plants and controls were maintained in a greenhouse for 14 to 21 days, after which time all species were compared to controls and visually evaluated. Plant response ratings, summarized in Table E, are based on a scale of 0 to 100 where 0 is no effect and 100 is complete control. A dash (-) response means no test result.

The test system of experiment [3] is crabgrass, large (large crabgrass, Digitaria sanguinalis). The experiment can be described thus: Test F pre-/postemergence: crabgrass, large. The conditions noted are these: Preemergence.
Excerpt: as §1, §2

Experiment [4] relates to cocklebur (common cocklebur, Xanthium strumarium). In words: Test F pre-/postemergence: cocklebur. As to conditions: Preemergence.
Excerpt: as §1, §2

In experiment [5] the test system is barnyardgrass (Echinochloa crus-galli). In words: Test C pre-/postemergence: barnyardgrass. As to conditions: Preemergence, 250 g ai/ha; scale 0 to 100, 0 no effect, 100 complete control. The text has this: (§3) Seeds of plant species selected from blackgrass (Alopecurus myosuroides), bromegrass, downy (downy bromegrass, Bromus tectorum), foxtail, green (green foxtail, Setaria viridis), ryegrass, Italian (Italian ryegrass, Lolium multiflorum), winter wheat (Triticum aestivum), wild oat (Avena fatua), galium (catchweed bedstraw, Galium aparine), bermudagrass (Cynodon dactylon), surinam grass (Brachiaria decumbens), cocklebur (common cocklebur, Xanthium strumarium), corn (Zea mays), large crabgrass (Digitaria sanguinalis), woolly cupgrass (Eriochloa villosa), foxtail, giant (giant foxtail, Setaria faberii), goosegrass (Eleusine indica), johnsongrass (Sorghum halepense), kochia (Kochia scoparia), lambsquarters (Chenopodium album), morningglory (Ipomoea coccinea), nightshade (eastern black nightshade, Solanum ptycanthum), nutsedge, yellow (yellow nutsedge, Cyperus esculentus), pigweed (Amaranthus retroflexus), ragweed (common ragweed, Ambrosia elation), soybean (Glycine max), common (oilseed) sunflower (Helianthus annuus), Russian thistle (Salsola kali) and velvetleaf (Abutilon theophrasti) were planted into a blend of loam soil and sand and treated preemergence with test chemicals formulated in a non-phytotoxic solvent mixture which included a surfactant.
(§4) At the same time, plants selected from these crop and weed species and also barley (winter barley, Hordeum vulgare), canarygrass (Phalaris minor), chickweed (common chickweed, Stellaria media) windgrass (Apera spica-venti) and deadnettle (henbit deadnettle, Lamium amplexicaule) were planted in pots containing Redi-Earth® planting medium (Scotts Company, 14111 Scottslawn Road, Marysville, Ohio 43041) comprising spaghnum peat moss, vermiculite, wetting agent and starter nutrients and treated with postemergence applications of test chemicals formulated in the same manner. Plants ranged in height from 2 to 18 cm (1- to 4-leaf stage) for postemergence treatments.
(§5) Treated plants and controls were maintained in a greenhouse for 13 to 15 days, after which time all species were compared to controls and visually evaluated. Plant response ratings, summarized in Table C, are based on a scale of 0 to 100 where 0 is no effect and 100 is complete control. A dash (-) response means no test result.

For experiment [6], the system named is Oilseed Rape. The experiment can be described thus: Test C pre-/postemergence: oilseed rape.
Excerpt: as §3, §4, §5

Setting [7] is: Postemergence, 31 g ai/ha, scale 0 to 100 (0 no effect, 100 complete control).
The mark [8] stands for this setting: Postemergence, 62 g ai/ha, scale 0 to 100 (0 no effect, 100 complete control).
[9] abbreviates: Postemergence, 125 g ai/ha, scale 0 to 100, 0 no effect, 100 complete control.
Setting [10] is: Postemergence, 250 g ai/ha, scale 0 to 100 (0 no effect, 100 complete control).
[11] abbreviates: Postemergence, 16 g ai/ha, scale 0 to 100.
Setting [12] is: Preemergence, 16 g ai/ha, scale 0 to 100 (0 no effect, 100 complete control).
Setting [13] is: Preemergence, 31 g ai/ha, scale 0 to 100 (0 no effect, 100 complete control).
The mark [14] stands for this setting: Preemergence, 62 g ai/ha, scale 0 to 100.
[15] abbreviates: Preemergence, 125 g ai/ha, scale 0 to 100.
[16] abbreviates: Preemergence, 250 g ai/ha, scale 0 to 100.
Setting [17] is: 31 g ai/ha, scale 0 to 100 (0 no effect, 100 complete control).
[18] abbreviates: 16 g ai/ha, scale 0 to 100 (0 no effect, 100 complete control).
The mark [19] stands for this setting: Preemergence, 250 g ai/ha, scale 0 to 100, 0 no effect, 100 complete control.

Structures are written as SMILES.

As to `Cc1nn(-c2ccc(F)cc2)nc1Cc1ccnc(C(F)(F)F)c1` [Compound 16, 4-[[2-(4-fluorophenyl)-5-methyl-2H-1,2,3-triazol-4-yl]methyl]-2-(trifluoromethyl)pyridine], the “Plant response rating: Radish, Wild” value in experiment [1] (setting [7]), in experiment [1] (setting [8]), in experiment [1] (setting [9]) and in experiment [1] (setting [10]) was 100 throughout. The “Plant response rating, Radish, Wild” value in experiment [1] (setting [11]) was found to be 90.
Consider `Cc1nn(-c2ccc(F)cc2)nc1Oc1ccnc(C(F)(F)F)c1` [Compound 129, 4-[[2-(4-fluorophenyl)-5-methyl-2H-1,2,3-triazol-4-yl]oxy]-2-(trifluoromethyl)pyridine], for which the “Plant response rating: Radish, Wild” value in experiment [1] (setting [7]) was determined as 90; in experiment [1] (setting [8]) it was 100; in experiment [1] (setting [9]), 100; in experiment [1] (setting [10]), 100. In addition, the “Plant response rating, Radish, Wild” value in experiment [1] (setting [11]) is listed as 90; in experiment [1] (setting [12]), 0; in experiment [1] (setting [13]) it was 0; in experiment [1] (setting [14]), 10; in experiment [1] (setting [15]) it was 100; in experiment [1] (setting [16]) it was 100.
On to `Cc1nn(-c2ccnc(C(F)(F)F)c2)nc1Cc1ccnc(C(F)(F)F)c1` [Compound 137], for which the “Plant response rating: Radish, Wild” value in experiment [1] (setting [7]) is on record as 40; in experiment [1] (setting [8]), 90; in experiment [1] (setting [9]) it was 100; in experiment [1] (setting [10]), 100. The “Plant response rating, Radish, Wild” value in experiment [1] (setting [11]) was 40.
In the case of `Fc1ccc(-n2nc(Cc3ccnc(C(F)(F)F)c3)c(OCC(F)(F)F)n2)cc1` [Compound 142], the results for the “Plant response rating, Panicum, Fall” value in experiment [2] (setting [12]), in experiment [2] (setting [13]) and in experiment [2] (setting [15]) were 25, 65 and 100, respectively. The “Plant response rating, Crabgrass, Large” value in experiment [3] (setting [17]) came out at 20; in experiment [3] (62 g ai/ha, scale 0 to 100), 98; in experiment [3] (125 g ai/ha, scale 0 to 100), 100. The “Plant response rating, Cocklebur” value in experiment [4] (setting [18]) came to 0; in experiment [4] (setting [17]) it was 0; in experiment [4] (62 g ai/ha, scale 0 to 100), 0.
For `Cc1nn(-c2ccc(F)c(F)c2)nc1Oc1ccnc(C(F)(F)F)c1` [Compound 145], the “Plant response rating, Panicum, Fall” value in experiment [2] (Postemergence, 8 g ai/ha, scale 0 to 100) was determined as 10; in experiment [2] (setting [11]), 25; in experiment [2] (Postemergence, 31 g ai/ha, scale 0 to 100), 40; in experiment [2] (Postemergence, 62 g ai/ha, scale 0 to 100) it was 40; in experiment [2] (Postemergence, 125 g ai/ha, scale 0 to 100), 40.
Consider `Cc1nn(-c2ccc(F)c(C(F)(F)F)c2)nc1Oc1ccnc(C(F)(F)F)c1` [Compound 147], for which the “Plant response rating: Radish, Wild” value is 100 in experiment [1] (setting [7]), 95 in experiment [1] (setting [8]) and 100 in experiment [1] (setting [9]). The “Plant response rating, Radish, Wild” value was 85 in experiment [1] (setting [11]), 10 in experiment [1] (setting [13]), 100 in experiment [1] (setting [14]) and 100 in experiment [1] (setting [15]).
On to `CCCc1nn(-c2ccc(F)cc2)nc1Cc1ccnc(C(F)(F)F)c1` [Compound 153], for which, in experiment [5], the “Plant response rating, Barnyardgrass” value is 100. The “Plant response rating, Panicum, Fall” value in experiment [2] (setting [12]) worked out at 5; in experiment [2] (setting [13]), 100; in experiment [2] (setting [15]) it was 100; in experiment [2] (setting [16]), 100. The “Plant response rating, Crabgrass, Large” value in experiment [3] (setting [18]) worked out at 80; in experiment [3] (setting [17]), 95; in experiment [3] (62 g ai/ha, scale 0 to 100) it was 100; in experiment [3] (125 g ai/ha, scale 0 to 100) it was 100; in experiment [3] (250 g ai/ha, scale 0 to 100) it was 100. In addition, the “Plant response rating, Oilseed Rape” value in experiment [6] (setting [19]) is recorded as 98. The “Plant response rating, Cocklebur” value in experiment [4] (setting [18]) is recorded as 0; in experiment [4] (62 g ai/ha, scale 0 to 100), 0.
Regarding `CCc1nn(-c2ccc(F)cc2)nc1Oc1ccnc(C(F)(F)F)c1` [Compound 166], the “Plant response rating, Barnyardgrass” value in experiment [5] is recorded as 100. For the same molecule, the results for the “Plant response rating, Oilseed Rape” value in experiment [6] (setting [7]) and in experiment [6] (setting [19]) were 5 and 100, respectively.
For `CCCc1nn(-c2ccc(C(F)(F)F)c(F)c2)nc1Oc1ccnc(C(F)(F)F)c1` [Compound 185], the “Plant response rating, Barnyardgrass” value in experiment [5] worked out at 100. Besides, the “Plant response rating, Oilseed Rape” value stood at 10 in experiment [6] (setting [7]) and 100 in experiment [6] (setting [19]).
